Laboratory results: patent US20260216164A1, “INDOLE COMPOUND DECOMPOSING IKZF2, AND USE THEREOF” (KOREA RESEARCH INSTITUTE OF CHEMICAL TECHNOLOGY, priority 2023, published 2026)
Where two headings read alike, the source gives them in different places.

Experiments:
Format in all cases: cell-based
IKZF2 (Helios) = IKZF2 (Helios) (Homo sapiens, UniProt Q96SW2+Q9UKS7); test: Screening of DC50 (nM) and Dmax (%) using WB-IKZF2 cell line (Western blot); design: endogenous in cells; details: 6 hours; for DC50: read-out: WB-IKZF2 DC 50
Experimental: Experimental Example 2. Screening of DC50 (nM) and Dmax (%) Using WB-IKZF2 Cell Line
Candidate degraders were serially diluted and treated in cells cultured in complete medium, followed by incubation for 6 hours at 37° C. in a CO2 incubator. After 6 hours, the cells were harvested and lysed in RIPA buffer (150 mM NaCl, 1% Triton X-100, 1% sodium deoxycholate, 0.1% SDS, 50 mM Tris-HCl pH 7.5, and 2 mM EDTA) containing a protease inhibitor cocktail (Roche). The mixture was vortexed every 10 minutes and incubated on ice for 30 minutes, followed by centrifugation at 13,000 rpm for 10 minutes at 4° C. to isolate proteins. The isolated proteins were quantified using the Bradford assay (Bio-Rad, 5000006). Proteins were separated on 8% SDS-polyacrylamide gel, transferred onto nitrocellulose membranes (Amersham, 10600002), and incubated with primary antibodies at 4° C. for 18 hours. The following primary antibodies were used: anti-Helios rabbit monoclonal antibody (Cell Signaling, 42427, 1:3000) and anti-β-actin mouse monoclonal antibody (Santa Cruz, sc-47778, 1:5000). β-actin was used as a loading control. The next day, the membranes were washed with 1×TBST for 30 minutes and incubated with HRP-conjugated secondary antibodies corresponding to the primary antibodies at room temperature for 1 hour. The following secondary antibodies were used: anti-mouse IgG HRP-linked antibody (Sigma, A9044, 1:5000) and anti-rabbit IgG HRP-linked antibody (Cell Signaling, 7074, 1:5000). After washing with 1×TBST for 30 minutes, protein expression was visualized using the Pierce ECL Western blotting substrate (Thermo Fisher, 32106), and images were captured using a chemiluminescence image analysis system (GE Healthcare, AI680). The obtained images were quantified using the ImageJ software.

Helios (IKZF2) = Helios (IKZF2) (Homo sapiens, UniProt Q96SW2+Q9UKS7); test: Screening of Helios protein degraders using Nano-Glo HiBiT cell line (HiBiT-IKZF2); details: 6 hours, HiBiT-Helios knock-in Jurkat cells; for remaining activity at 1 µM: compound 1 μM, read-out: HiBiT-IKZF2 Residual amount of Helios (%) 1 μM; for remaining activity at 10 µM: compound 10 μM, read-out: HiBiT-IKZF2 Residual amount of Helios (%) 10 μM
Helios protein = molecular target: T1, Helios protein (Homo sapiens, UniProt Q96SW2+Q9UKS7); test: Measurement of Helios protein degradation using Western blot analysis in Jurkat cells (FIG. 1); details: 6 hours
T1 construct: endogenous in cells; host or cells: Jurkat cells
Experimental: To confirm the degradation of Helios protein by the degrader, Western blot analysis was performed. Jurkat cells (5×10^6) in complete medium were treated with serial dilutions of the compound at 37° C. in a CO2 incubator for 6 hours.
After harvesting the cells, they were lysed in RIPA buffer (LPS solution, CRB002) containing a protease inhibitor cocktail (Roche). The lysates were incubated on ice for 30 minutes with vortexing every 10 minutes, followed by centrifugation at 13,000 rpm for 10 minutes at 4° C. to isolate the cell lysates. The lysates were quantified using the Bradford assay (Bio-Rad, 5000006).
30 μg of the lysates were separated by 8% SDS-polyacrylamide gel electrophoresis (SDS-PAGE), and the proteins were transferred to a nitrocellulose (NC) membrane (Amersham, 10600002), followed by incubation with primary antibodies at 4° C. for 18 hours. […]
After washing with 1×TBST for 30 minutes, protein expression was visualized using Pierce ECL Western blotting substrate (Thermo Fisher, 32106), and the images were acquired using a chemiluminescence imaging system (GE Healthcare, AI680). The resulting images were quantified using ImageJ software. The results of Helios protein degradation measured with compound 39 of the present disclosure and comparative compound DKY709 are shown in FIG. 1.

[1] = molecular target: IKZF2 over IKZF1, IKZF3, and IKZF4 (Homo sapiens, UniProt Q96SW2+Q9UKS7); test: Selective degradation of IKZF2 over IKZF1, IKZF3 and IKZF4

Helios (IKZF2), sequence (Q9UKS7 whole entry): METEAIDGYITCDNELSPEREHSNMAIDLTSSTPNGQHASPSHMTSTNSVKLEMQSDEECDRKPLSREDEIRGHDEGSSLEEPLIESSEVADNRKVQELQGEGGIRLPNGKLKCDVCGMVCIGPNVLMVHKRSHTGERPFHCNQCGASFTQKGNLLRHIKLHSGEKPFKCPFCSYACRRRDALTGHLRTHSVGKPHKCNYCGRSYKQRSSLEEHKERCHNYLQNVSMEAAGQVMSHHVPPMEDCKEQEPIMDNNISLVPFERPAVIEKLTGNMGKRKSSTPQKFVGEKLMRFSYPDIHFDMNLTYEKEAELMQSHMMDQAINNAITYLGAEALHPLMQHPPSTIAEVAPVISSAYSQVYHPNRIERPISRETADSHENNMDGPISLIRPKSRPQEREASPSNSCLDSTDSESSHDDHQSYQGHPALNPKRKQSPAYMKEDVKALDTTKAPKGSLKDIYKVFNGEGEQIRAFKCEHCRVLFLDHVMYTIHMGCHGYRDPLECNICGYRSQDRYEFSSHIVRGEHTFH
Helios (IKZF2), sequence (Q96SW2 whole entry): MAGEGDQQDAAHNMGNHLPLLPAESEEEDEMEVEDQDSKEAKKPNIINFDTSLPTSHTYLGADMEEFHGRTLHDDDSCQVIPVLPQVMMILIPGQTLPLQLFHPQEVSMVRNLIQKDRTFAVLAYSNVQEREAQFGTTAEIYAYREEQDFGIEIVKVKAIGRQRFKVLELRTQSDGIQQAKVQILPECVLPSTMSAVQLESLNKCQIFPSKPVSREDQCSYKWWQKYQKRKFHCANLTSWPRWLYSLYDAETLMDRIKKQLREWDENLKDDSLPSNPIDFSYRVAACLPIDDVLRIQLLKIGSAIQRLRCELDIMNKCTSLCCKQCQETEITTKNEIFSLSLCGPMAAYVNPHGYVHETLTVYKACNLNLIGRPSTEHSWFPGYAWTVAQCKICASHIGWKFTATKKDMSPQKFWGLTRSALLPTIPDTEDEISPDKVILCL
Helios (IKZF2), sequence (Q16531 whole entry partner): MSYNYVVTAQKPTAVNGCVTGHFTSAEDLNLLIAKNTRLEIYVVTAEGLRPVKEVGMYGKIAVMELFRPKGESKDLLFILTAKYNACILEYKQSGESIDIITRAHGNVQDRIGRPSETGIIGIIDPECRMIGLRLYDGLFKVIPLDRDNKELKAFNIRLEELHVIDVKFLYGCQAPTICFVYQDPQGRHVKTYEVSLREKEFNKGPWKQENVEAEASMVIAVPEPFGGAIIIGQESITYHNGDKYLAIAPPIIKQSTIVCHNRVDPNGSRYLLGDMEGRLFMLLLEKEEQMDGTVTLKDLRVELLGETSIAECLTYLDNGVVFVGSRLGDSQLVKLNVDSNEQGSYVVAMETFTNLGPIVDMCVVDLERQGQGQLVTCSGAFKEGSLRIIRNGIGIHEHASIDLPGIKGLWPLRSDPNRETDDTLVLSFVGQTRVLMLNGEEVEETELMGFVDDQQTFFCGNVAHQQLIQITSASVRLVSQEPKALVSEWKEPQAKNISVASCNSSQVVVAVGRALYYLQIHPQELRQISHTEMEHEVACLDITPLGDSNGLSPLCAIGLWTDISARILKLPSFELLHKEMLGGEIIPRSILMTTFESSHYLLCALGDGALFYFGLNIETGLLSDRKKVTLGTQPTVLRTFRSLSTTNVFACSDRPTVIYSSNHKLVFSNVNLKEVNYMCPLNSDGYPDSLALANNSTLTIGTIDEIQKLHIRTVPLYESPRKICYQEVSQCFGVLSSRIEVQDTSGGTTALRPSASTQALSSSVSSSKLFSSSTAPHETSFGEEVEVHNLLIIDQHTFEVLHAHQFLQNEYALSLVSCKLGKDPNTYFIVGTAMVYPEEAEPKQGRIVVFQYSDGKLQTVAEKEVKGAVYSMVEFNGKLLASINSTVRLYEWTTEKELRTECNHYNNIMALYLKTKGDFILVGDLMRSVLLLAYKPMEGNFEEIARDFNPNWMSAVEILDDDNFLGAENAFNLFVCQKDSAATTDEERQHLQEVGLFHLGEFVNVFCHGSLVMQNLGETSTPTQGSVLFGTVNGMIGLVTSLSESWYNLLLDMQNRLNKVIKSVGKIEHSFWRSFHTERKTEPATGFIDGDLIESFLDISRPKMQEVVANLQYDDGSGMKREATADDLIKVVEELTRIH
IKZF2 (Helios), sequence (Q9UKS7 whole entry): as the sequence (Q9UKS7 whole entry) above
IKZF2 (Helios), sequence (Q96SW2 whole entry): as the sequence (Q96SW2 whole entry) above
IKZF2 (Helios), sequence (Q16531 whole entry partner): as the sequence (Q16531 whole entry partner) above
T1 sequence (Q9UKS7 whole entry): as the sequence (Q9UKS7 whole entry) above
T1 sequence (Q96SW2 whole entry): as the sequence (Q96SW2 whole entry) above
T1 sequence (Q16531 whole entry partner): as the sequence (Q16531 whole entry partner) above

Row | Dmax (IKZF2 (Helios)) [%] | DC50 (IKZF2 (Helios); numeric value) [µM] | remaining activity at 1 µM (Helios (IKZF2)) [%] | remaining activity at 10 µM (Helios (IKZF2)) [%] | Helios protein degradation activity compared to comparative compound 1 (DKY709) (Helios protein) | DC50 (IKZF2 (Helios); class symbols) [µM] | Compound | selective degradation activity for IKZF2 over IKZF1, IKZF3, and IKZF4 [1]
1 |  |  | 10.9 | 14.6 |  | 0.01 to 0.1 | Cc1c(C(=O)N2CCC(c3ccc4c(c3)CN(C3CCC(=O)NC3=O)C4=O)CC2)[nH]c2c(F)c(Cl)ccc12 (stereo not shown) [Compound 99, 3-(5-(1-(6-chloro-7-fluoro-3-methyl-1H-indole-2-carbonyl)piperidin-4-yl)-1-oxoinsoindolin-2-yl)piperidine-2,6-dione] | 
2 | 100 |  | 15.7 | 20.7 |  | 0.01 to 0.1 | Cc1c(C(=O)N2CCC(c3ccc4c(c3)CN(C3CCC(=O)NC3=O)C4=O)CC2)[nH]c2cc(Cl)c(O)cc12 (stereo not shown) [Compound 101, 3-(5-(1-(6-chloro-5-hydroxy-3-methyl-1H-indole-2-carbonyl)piperidin-4-yl)-1-oxoinsoindolin-2-yl)piperidine-2,6-dione] | 
3 | 100 |  | 21.8 | 26.2 |  | < 0.01 | Cc1c(C(=O)N2CCC(c3ccc4c(c3)CN(C3CCC(=O)NC3=O)C4=O)CC2)[nH]c2cc(Cl)c(F)cc12 (stereo not shown) [Compound 102, 3-(5-(1-(6-chloro-5-fluoro-3-methyl-1H-indole-2-carbonyl)piperidin-4-yl)-1-oxoinsoindolin-2-yl)piperidine-2,6-dione] | 
4 | 100 |  | 8.3 | 7.5 |  | < 0.01 | COc1cc2c(C)c(C(=O)N3CCC(c4ccc5c(c4F)CN(C4CCC(=O)NC4=O)C5=O)CC3)[nH]c2cc1Cl (stereo not shown) [Compound 108, 3-(5-(1-(6-chloro-5-methoxy-3-methyl-1H-indole-2-carbonyl)piperidin-4-yl)-4-fluoro-1-oxoinsoindolin-2-yl)piperidine-2,6-dione] | 

The next lines start with the compound.

Row | Compound | Dmax (IKZF2 (Helios)) [%] | DC50 (IKZF2 (Helios); numeric value) [µM] | remaining activity at 1 µM (Helios (IKZF2)) [%] | remaining activity at 10 µM (Helios (IKZF2)) [%] | Helios protein degradation activity compared to comparative compound 1 (DKY709) (Helios protein) | DC50 (IKZF2 (Helios); class symbols) [µM] | selective degradation activity for IKZF2 over IKZF1, IKZF3, and IKZF4 [1]
5 | Cc1c(C(=O)N2CCC(c3ccc4c(c3)CN(C3CCC(=O)NC3=O)C4=O)CC2)[nH]c2cc(Cl)ccc12 (stereo not shown) [Compound 39, 3-(5-(1-(6-chloro-3-methyl-1H-indole-2-carbonyl)piperidin-4-yl)-1-oxoinsoindolin-2-yl)piperidine-2,6-dione] | 100 | 0.00019 | 6.6 | 5.5 | more than 1,000 fold |  | 
6 | O=C1CCC(N2Cc3cc(C4CCN(C(=O)c5[nH]c6cc(Cl)ccc6c5CN5CCOCC5)CC4)ccc3C2=O)C(=O)N1 (stereo not shown) [Compound 82, 3-(5-(1-(6-chloro-3-(morpholinomethyl)-1H-indole-2-carbonyl)piperidin-4-yl)-1-oxoinsoindolin-2-yl)piperidine-2,6-dione] |  |  |  | 7.4 |  | 0.01 to 0.1 | selective degradation activity for IKZF2 over IKZF1, IKZF3, and IKZF4
7 | Cc1c(C(=O)N2CCC(c3ccc4c(c3)C(=O)N(C3CCC(=O)NC3=O)C4=O)CC2)[nH]c2cc([N+](=O)[O-])ccc12 (stereo not shown) [Compound 95, 2-(2,6-dioxopiperidin-3-yl)-5-(1-(3-methyl-6-nitro-1H-indole-2-carbonyl)piperidin-4-yl)isoindoline-1,3-dione] |  |  |  | 10.9 |  | 0.01 to 0.1 | 
8 | COc1cc2c(C)c(C(=O)N3CCC(c4ccc5c(c4)CN(C4CCC(=O)NC4=O)C5=O)CC3)[nH]c2cc1[N+](=O)[O-] (stereo not shown) [Compound 97, 3-(5-(1-(5-methoxy-3-methyl-6-nitro-1H-indole-2-carbonyl)piperidin-4-yl)-1-oxoinsoindolin-2-yl)piperidine-2,6-dione] |  |  | 14.6 | 21.4 |  | 0.01 to 0.1 | 
9 | Cc1c(C(=O)N2CCC(c3cc4c(cc3F)C(=O)N(C3CCC(=O)NC3=O)C4)CC2)[nH]c2cc(Cl)c(F)cc12 (stereo not shown) [Compound 112, 3-(5-(1-(6-chloro-5-fluoro-3-methyl-1H-indole-2-carbonyl)piperidin-4-yl)-6-fluoro-1-oxoinsoindolin-2-yl)piperidine-2,6-dione] | 98 |  | 23 |  |  | 0.01 to 0.1 | 
10 | Cc1c(C(=O)N2CCC(c3ccc4c(c3F)CN(C3CCC(=O)NC3=O)C4=O)CC2)[nH]c2cc(Cl)c(F)cc12 (stereo not shown) [Compound 113, 3-(5-(1-(6-chloro-5-fluoro-3-methyl-1H-indole-2-carbonyl)piperidin-4-yl)-4-fluoro-1-oxoinsoindolin-2-yl)piperidine-2,6-dione] | 96 |  | 14.1 |  |  | < 0.01 | 
11 | Cc1c(C(=O)N2CCC(c3ccc4c(c3F)CN(C3CCC(=O)NC3=O)C4=O)CC2)[nH]c2cc(Cl)c(O)cc12 (stereo not shown) [Compound 115, 3-(5-(1-(6-chloro-5-hydroxy-3-methyl-1H-indole-2-carbonyl)piperidin-4-yl)-4-fluoro-1-oxoinsoindolin-2-yl)piperidine-2,6-dione] | 100 |  | 34.6 |  |  | < 0.01 | 
